{"source": "patent US20260335495A1", "about": "“SYNERGISTIC ACTIVITY OF NOVEL COMPOUNDS AGAINST PLANKTONIC AND BIOFILM CELLS OF CLINICALLY RELEVANT PATHOGENS” (priority 2021, published 2026)", "key": {"[1]": {"test_system": "broad range of microbial species", "details": "even at high concentrations; cited from earlier work"}, "[2]": {"details": "overuse; cited from earlier work"}, "[3]": {"test_system": "human erythrocytes and neutrophils", "details": "concentrations above 2%, in vitro; cited from earlier work"}, "[4]": {"details": "cited from earlier work"}, "biofilms": {"test_system": "biofilms", "details": "cited from earlier work"}, "S. aureus": {"test_system": "S. aureus", "details": "cited from earlier work"}, "MRSA ON184": {"test_system": "MRSA ON184", "experiment": "MIC and checkerboard (FICI), planktonic cells", "assay_type": "cell-based, methicillin-resistant S. aureus", "method": "(§1) The MIC was determined by the micro broth dilution method in 96-well plates. […] A 10 μL containing 1×10^5 bacterial cells or 2×10^3 fungal cells were added to each well. The inoculated plates were covered with a lid, sealed with Parafilm, and incubated for 24 h at 37 °C with slight rocking on a tilting platform shaker. After incubation, the optical density at 600 nm (OD 600) of the cultures in each well was measured using an xMark™ Microplate Absorbance Spectrophotometer (Bio-Rad). The MIC was defined as the lowest concentration of antimicrobial compound at which the culture OD600 values was similar to uninoculated control wells. MBCs and MFCs were determined by transferring 100 μL from each well with no apparent growth onto appropriate agar plates, followed by incubation for 24 h at 37 °C.\n(§2) The concentrations of antimicrobials used were based on previously determined MIC values. […] Microtiter plates were incubated at 37 °C for 24 h, and the results were analyzed. Each test was performed in duplicate and included a growth control without the addition of any antimicrobials."}, "[5]": {"test_system": "bacterial and fungal biofilms", "experiment": "Rapid eradication of 48-h-old biofilms within 2 h exposure", "assay_type": "cell-based, bacterial and fungal strains", "details": "at the MBEC alone, 48-h-old biofilm", "method": "This example comprises performing biofilm growth as described above. After biofilm formation, control pegs (n=6) were removed and analyzed to determine the starting biofilm cell numbers via the drop dilution method. The 48-h old biofilms on the pegs were exposed to different concentrations of test antimicrobials, dissolved in an appropriate growth medium, for 2 hours to evaluate their efficacy alone and in combination. […] Following treatment, pegs were washed twice with sterile PBS, and the biofilm cells were dislodged into recovery medium and enumerated as described above."}, "[6]": {"test_system": "Staphylococcus aureus ON89", "experiment": "MIC and checkerboard (FICI), planktonic cells", "assay_type": "cell-based", "method": "as §1, §2"}, "Serratia marcescens SK2": {"test_system": "Serratia marcescens SK2", "experiment": "MIC and checkerboard (FICI), planktonic cells", "assay_type": "cell-based", "method": "as §1, §2"}, "S. epidermidis SK9": {"test_system": "S. epidermidis SK9", "experiment": "MIC and checkerboard (FICI), planktonic cells", "assay_type": "cell-based", "method": "as §1, §2"}, "C. albicans ON47": {"test_system": "C. albicans ON47", "experiment": "MIC and checkerboard (FICI), planktonic cells", "assay_type": "cell-based", "method": "as §1, §2"}, "[7]": {"test_system": "Pseudomonas aeruginosa SK1", "experiment": "MIC and checkerboard (FICI), planktonic cells", "assay_type": "cell-based", "method": "as §1, §2"}, "[8]": {"test_system": "Stenotrophomonas maltophilia ON17", "experiment": "MIC and checkerboard (FICI), planktonic cells", "assay_type": "cell-based", "method": "as §1, §2"}, "[9]": {"test_system": "Staphylococcus epidermidis ON170", "experiment": "MIC and checkerboard (FICI), planktonic cells", "assay_type": "cell-based", "method": "as §1, §2"}, "Escherichia coli ON29": {"test_system": "Escherichia coli ON29", "experiment": "MIC and checkerboard (FICI), planktonic cells", "assay_type": "cell-based", "method": "as §1, §2"}, "Candida albicans SK4b": {"test_system": "Candida albicans SK4b", "experiment": "MIC and checkerboard (FICI), planktonic cells", "assay_type": "cell-based", "method": "as §1, §2"}, "Proteus mirabilis ON153": {"test_system": "Proteus mirabilis ON153", "experiment": "MIC and checkerboard (FICI), planktonic cells", "assay_type": "cell-based", "method": "as §1, §2"}, "E. coli SK2": {"test_system": "E. coli SK2", "experiment": "MIC and checkerboard (FICI), planktonic cells", "assay_type": "cell-based", "method": "as §1, §2"}, "[10]": {"test_system": "preformed biofilms of test pathogens", "experiment": "MBEC and FBEC index, 48 h old biofilms, summary over strains", "assay_type": "cell-based, bacterial and fungal strains", "details": "alone: 4% tetrasodium EDTA, 50% ethanol, 100 μg/mL chlorhexidine HCl, 24 hours", "method": "The evaluation of the biofilm cultivation cell composition was evaluated using an MBEC Assay® biofilm inoculator, consisting of a polystyrene lid with 96 downward-protruding pegs and a corresponding base used to grow biofilms. A standardized inoculum was diluted in an appropriate biofilm growth medium to achieve a viable cell count of 1.5×10^6 CFU/mL of bacterial cells or 5×10^5 CFU/mL of fungal cells. Then, 150 μL of this inoculum was transferred into each appropriate well, and the peg lids were inserted into the microtiter plates. The plates were sealed with Parafilm and were incubated at optimum temperature for 48 h with slight rocking for bacteria and shaking at 200 rpm for fungal strains. After incubation, the peg lid was removed from the base and rinsed twice with sterile phosphate-buffered saline (PBS) for 2 min to remove loosely attached non-sessile cells. Before the antimicrobial challenge, the pegs in column 1 (n=8) were considered as the biofilm growth control; these pegs were removed from the lids, placed into 200 μL of recovery medium, and analyzed for starting biofilm cell numbers as described below. […] After the antimicrobial challenge, the pegs were rinsed twice with sterile PBS for 2 min and placed into a new 96-well plate containing 200 μL of recovery medium. The recovery plates were sealed with Parafilm, and biofilm cells were dislodged from the pegs by sonication for 30 min with a Branson 3510 bath sonicator. The biofilm cells in the recovery medium were serially diluted, and a drop dilution assay was performed to enumerate the viable cells.\nIn step (4), microtiter plates are incubated at 37 °C for 24 h. then (6), after incubation, the bacterial and fungal cells were dislodged from the pegs into the recovery medium described above.\nThree 10-μL aliquots, for a total of 30 μL from each well of recovery medium, were spotted on MH agar plates and incubated for 24 hours at 37 °C. […] The FBEC determination is a modification of the FICI. […]"}, "12 test organisms": {"test_system": "12 test organisms", "experiment": "MBC/MFC and FMCI, planktonic cells, summary over strains", "assay_type": "cell-based, bacterial and fungal organisms", "method": "as §1, §2"}}, "note": "Where a name gives a salt, the structure may show the parent alone."}
{"molecule": "O=C(O)CN(CCN(CC(=O)O)CC(=O)O)CC(=O)O", "note": "[disodium EDTA]", "values": [{"measurement": "antimicrobial activity alone", "setting": "[1]", "result": "not a potent antimicrobial agent (i.e., does not kill cells)"}]}
{"molecule": "[H]/N=C(\\N/C(=N/[H])NCCCCCCNC(=N)NC(=N)Nc1ccc(Cl)cc1)Nc1ccc(Cl)cc1", "note": "[Chlorhexidine, 1,6-bis(4-chloro-phenylbiguanido)hexane]", "values": [{"measurement": "reduced susceptibility and cross-resistance", "setting": "[2]", "result": "reduced susceptibility from its overuse and a cross-resistance to colistin"}, {"measurement": "effect on human erythrocytes and neutrophils", "setting": "[3]", "result": "fewer human erythrocytes and neutrophils in vitro"}, {"measurement": "mammalian toxicity", "setting": "[4]; in vivo", "result": "low mammalian toxicity"}, {"measurement": "chemical burns", "setting": "[4]; infants", "result": "cause chemical burns in infants"}, {"measurement": "allergenicity", "setting": "[4]; perioperative and clinical care settings", "result": "significant allergen"}]}
{"molecule": "Heparin", "values": [{"measurement": "inhibition or eradication of biofilms", "setting": "biofilms", "result": "neither of these agents has the potential to inhibit or eradicate biofilms"}, {"measurement": "colonization of catheter surfaces", "setting": "S. aureus", "result": "promote the colonization of S. aureus on catheter surfaces"}]}
{"molecule": "[H]/N=C(\\N/C(=N/[H])NCCCCCCNC(=N)NC(=N)Nc1ccc(Cl)cc1)Nc1ccc(Cl)cc1", "note": "[CH, chlorhexidine HCl]", "values": [{"measurement": "MIC", "setting": "MRSA ON184; Staphylococcus aureus, MRSA, alone, 24 h, 37 °C, read-out: MIC", "result": 0.2, "unit": "µg/mL"}, {"measurement": "MIC in combination", "setting": "MRSA ON184; TE + CH in combination", "result": 0.2, "unit": "µg/mL"}, {"measurement": "biofilm eradication", "setting": "[5]", "result": "failed to eradicate the preformed biofilms"}, {"measurement": "MIC", "setting": "[6]; Staphylococcus aureus, ON89, alone, 24 h, 37 °C, read-out: MIC", "result": 0.1, "unit": "µg/mL"}, {"measurement": "MIC in combination", "setting": "[6]; TE + CH in combination", "result": 0.1, "unit": "µg/mL"}, {"measurement": "MIC", "setting": "Serratia marcescens SK2; Serratia marcescens, SK2, 24 h", "result": 12.5, "unit": "µg/mL"}, {"measurement": "MIC in combination", "setting": "Serratia marcescens SK2; TE + CH in combination", "result": 1.5, "unit": "µg/mL"}, {"measurement": "MIC", "setting": "S. epidermidis SK9; Staphylococcus epidermidis, SK9, alone, 24 h, 37 °C, read-out: MIC", "result": 0.1, "unit": "µg/mL"}, {"measurement": "MIC in combination", "setting": "S. epidermidis SK9; TE + CH in combination", "result": 0.025, "unit": "µg/mL"}, {"measurement": "MIC", "setting": "C. albicans ON47; Candida albicans, ON47, 24 h", "result": 1.6, "unit": "µg/mL"}, {"measurement": "MIC in combination", "setting": "C. albicans ON47; TE + CH in combination", "result": 0.8, "unit": "µg/mL"}, {"measurement": "MIC", "setting": "[7]; Pseudomonas aeruginosa, SK1, 24 h", "result": 1.6, "unit": "µg/mL"}, {"measurement": "MIC in combination", "setting": "[7]; TE + CH in combination", "result": 0.8, "unit": "µg/mL"}, {"measurement": "MIC", "setting": "[8]; Stenotrophomonas maltophilia, ON17, 24 h", "result": 0.8, "unit": "µg/mL"}, {"measurement": "MIC in combination", "setting": "[8]; TE + CH in combination", "result": 0.2, "unit": "µg/mL"}, {"measurement": "MIC", "setting": "[9]; Staphylococcus epidermidis, ON170, alone, 24 h, 37 °C, read-out: MIC", "result": 0.1, "unit": "µg/mL"}, {"measurement": "MIC in combination", "setting": "[9]; TE + CH in combination", "result": 0.05, "unit": "µg/mL"}, {"measurement": "MIC", "setting": "Escherichia coli ON29; Escherichia coli, ON29, alone, 24 h, 37 °C, read-out: MIC", "result": 0.4, "unit": "µg/mL"}, {"measurement": "MIC in combination", "setting": "Escherichia coli ON29; TE + CH in combination", "result": 0.2, "unit": "µg/mL"}, {"measurement": "MIC", "setting": "Candida albicans SK4b; Candida albicans, SK4B, 24 h", "result": 1.6, "unit": "µg/mL"}, {"measurement": "MIC in combination", "setting": "Candida albicans SK4b; TE + CH in combination", "result": 0.8, "unit": "µg/mL"}, {"measurement": "MIC", "setting": "Proteus mirabilis ON153; Proteus mirabilis, ON153, alone, 24 h, 37 °C, read-out: MIC", "result": 50, "unit": "µg/mL"}, {"measurement": "MIC in combination", "setting": "Proteus mirabilis ON153; TE + CH in combination", "result": 0.8, "unit": "µg/mL"}, {"measurement": "MIC", "setting": "E. coli SK2; Escherichia coli, SK2, 24 h", "result": 0.4, "unit": "µg/mL"}, {"measurement": "MIC in combination", "setting": "E. coli SK2; TE + CH in combination", "result": 0.1, "unit": "µg/mL"}, {"measurement": "eradication of all established biofilms", "setting": "[10]", "result": "able to eradicate all established biofilms"}, {"measurement": "microbicidal activity", "setting": "12 test organisms", "result": "broad-spectrum microbicidal activity"}]}
